Assay results: PMC9589054, “One-step synthesized antimicrobial peptide-functionalized gold nanoclusters for selective imaging and killing of pathogenic bacteria” (Frontiers in Microbiology, 2022)
Ends that are not written are not given here.

Legend:
Assay in all cases: Plate bactericidal experiment (colony counting)
Type in all cases: cell-based
Conditions in all cases: 22-712 μg/ml tested
[1] = test system: Escherichia coli (E. coli) ATCC 25922
Experimental: (§1) The Escherichia coli (E. coli) ATCC 25922, Staphylococcus aureus (S. aureus) ATCC 25923, and Acinetobacter baumannii (A. baumannii) ATCC 19606 used in our experiments were preserved in our laboratory. Bacteria were cultured in LB liquid medium at 37°C for 8–12 h. Then, the cultures were centrifuged at 4,000 rpm for 5 min and washed three times with PBS. Eventually, the bacterial solutions were diluted to different concentrations for testing (10–1.00 × 10^9 cfu/ml). First, 100 μl of CWR11-AuNC solution was added to an E. coli or S. aureus suspension (1 × 10^5 cfu/ml). After 1 h of incubation, 10 μl of bacterial suspension was inoculated on an LB solid agar plate and placed at 37°C for 24 h before the number of colonies was counted. In addition, different concentrations of CWR11-AuNCs were added to the bacterial suspensions (McFarland turbidity of 0.5) and placed at 37°C for 18–24 h. Bacterial viability was determined by measuring the absorbance at 600 nm.

[2] = test system: Staphylococcus aureus (S. aureus) ATCC 25923
Experimental: as §1

[3] = test system: Acinetobacter baumannii (A. baumannii) ATCC 19606

CWFWKWWRRRRR [CWR11]
significantly reduced the activity: effect on activity of E. coli [1] | effect on activity of S. aureus [2] | effect on activity of A. baumannii [3]
